We go through 17 molecules from US7285543B2, “Purine inhibitors of fructose-1,6-bisphosphatase” (Metabasis Therapeutics, Inc., priority 1997, dated 2007).

In one data set the target is T1, human liver FBPase (Homo sapiens, UniProt P09467).
T1 construct: made in house; host or cells: E. coli BL21
T1 sequence (P09467 2-338 limits assumed): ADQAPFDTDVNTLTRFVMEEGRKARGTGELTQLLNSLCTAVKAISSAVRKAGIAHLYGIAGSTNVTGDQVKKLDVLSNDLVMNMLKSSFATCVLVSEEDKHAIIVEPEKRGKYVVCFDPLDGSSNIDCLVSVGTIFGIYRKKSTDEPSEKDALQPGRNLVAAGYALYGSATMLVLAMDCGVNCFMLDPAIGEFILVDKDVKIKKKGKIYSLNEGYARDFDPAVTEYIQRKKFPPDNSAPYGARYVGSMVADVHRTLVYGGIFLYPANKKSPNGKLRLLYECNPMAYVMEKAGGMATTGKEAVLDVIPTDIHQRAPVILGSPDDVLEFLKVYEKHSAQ
As to the kind of experiment: Inhibition of human liver FBPase (coupled spectrophotometric assay). It counts as biochemical. The conditions noted are these: for inhibition of hlFBPase (FIG. 2): result in words.

The target of another data set is T2, mouse liver FBPase (Mus musculus, UniProt Q9QXD6).
T2 construct: This partially purified fraction was used for enzyme assays; from tissue; host or cells: mouse liver
T2 sequence (Q9QXD6 2-338 limits assumed): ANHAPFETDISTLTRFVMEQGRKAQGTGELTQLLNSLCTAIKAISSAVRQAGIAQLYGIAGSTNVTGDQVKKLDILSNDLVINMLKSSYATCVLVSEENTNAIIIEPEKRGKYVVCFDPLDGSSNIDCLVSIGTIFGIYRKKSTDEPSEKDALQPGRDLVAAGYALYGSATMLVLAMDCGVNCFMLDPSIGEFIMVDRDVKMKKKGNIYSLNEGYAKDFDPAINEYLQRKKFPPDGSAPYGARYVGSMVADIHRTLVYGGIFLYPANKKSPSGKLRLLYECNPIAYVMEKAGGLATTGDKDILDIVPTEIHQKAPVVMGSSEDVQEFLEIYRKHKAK
The data set is described as follows: In vitro inhibition of mouse liver FBPase. It counts as biochemical. How it is done: (§1) Mouse liver FBPase was obtained by homogenizing freshly isolated mouse liver in 100 mM Tris-HCl buffer, pH 7.4, containing 1 mM EGTA, and 10% glycerol. […] This fraction was redissolved in the homogenization buffer and desalted on a PD-10 gel filtration column (Biorad) eluted with same. This partially purified fraction was used for enzyme assays. Both rat liver and mouse liver FBPase were assayed as described for human liver FBPase.

A further data set deals with rat hepatocytes. As to the kind of experiment: Inhibition of gluconeogenesis (glucose production from lactate/pyruvate) in rat hepatocytes. It is filed as cell-based. Particulars: from lactate/pyruvate, isolated rat hepatocytes. Here is the method:
Hepatocytes were prepared from overnight fasted Sprague-Dawley rats (250-300 g) according to the procedure of Berry and Friend (Berry, M. N., Friend, D. S., J. Cell. Biol. 1969, 43, 506-520) as modified by Groen (Groen, […]., Eur. J. Biochem. 1982, 122, 87-93). […] Incubations were carried out in a 95% oxygen, 5% carbon dioxide atmosphere in closed, 50-mL Falcon tubes submerged in a rapidly shaking water bath (37° C.). After 1 hour, an aliquot (0.25 mL) was removed, transferred to an Eppendorf tube and centrifuged. 50 μl of supernatant was then assayed for glucose content using a Sigma Glucose Oxidase kit as per the manufacturer's instructions.

Data set [1] has as its target T3, allosteric AMP binding site of hlFBPase (Homo sapiens, UniProt P09467).
T3 construct: made in house; host or cells: E. coli BL21
T3 sequence (P09467 2-338 limits assumed): T1 sequence (P09467 2-338 limits assumed)
The data set is described as follows: AMP site binding: displacement of 3H-AMP from hlFBPase. The conditions noted are these: for EC50: 3H-AMP, hlFBPase, read-out: ED50 for AMP displacement; for displacement of AMP from hlFBPase (FIG. 3): result in words. Here is the method: To determine whether compounds bind to the allosteric AMP binding site of hlFBPase, the enzyme was incubated with radiolabeled AMP in the presence of a range of test compound concentrations. The reaction mixtures consisted of […] ^3H-AMP (54 mCi/mmol) and […] test compound in 25 mM Tris-HCl, pH 7.4, 100 mM KCl and 1 mM MgCl2. 1.45 mg of homogeneous FBPase (±1 nmole) was added last. After a 1 minute incubation, AMP bound to FBPase was separated from unbound AMP by means of a centrifugal ultrafiltration unit (“Ultrafree-MC”, Millipore) used according to the instructions of the manufacturer. The radioactivity in aliquots (100 μl) of the upper compartment of the unit (the retentate, which contains enzyme and label) and the lower compartment (the filtrate, which contains unbound label) were quantified using a Beckman liquid scintillation counter. The amount of AMP bound to the enzyme was estimated by comparing the counts in the filtrate (the unbound label) to the total counts in the retentate.

For another data set, the target named is T4, rat liver FBPase (Rattus norvegicus, UniProt P19112).
T4 construct: made in house; host or cells: E. coli BL21
T4 sequence (P19112 2-363 limits assumed): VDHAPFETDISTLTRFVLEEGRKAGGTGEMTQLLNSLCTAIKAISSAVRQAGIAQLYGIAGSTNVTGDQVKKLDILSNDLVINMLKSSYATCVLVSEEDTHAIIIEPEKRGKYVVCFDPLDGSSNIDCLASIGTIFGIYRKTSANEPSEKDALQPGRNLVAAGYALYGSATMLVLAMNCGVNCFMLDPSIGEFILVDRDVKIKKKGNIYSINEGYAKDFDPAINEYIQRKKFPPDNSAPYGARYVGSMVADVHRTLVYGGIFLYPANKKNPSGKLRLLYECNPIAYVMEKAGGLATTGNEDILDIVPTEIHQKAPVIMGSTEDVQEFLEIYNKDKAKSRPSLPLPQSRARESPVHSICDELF
As to the kind of experiment: In vitro inhibition of rat liver FBPase. It counts as biochemical. How it is done: as §1

Data set [2] in a line: Estimation of the oral bioavailability of prodrugs of phosphonic acids (urinary recovery). It is filed as in vivo, rat. The conditions noted are these: rat, estimated from urinary recovery vs intravenous parent. How it is done:
Prodrugs were dissolved in 10% ethanol/90% polyethylene glycol (mw 400) and administered by oral gavage at doses of approximately 20 or 40 mg/kg parent compound equivalents to 6-hour fasted, Sprague Dawley rats (220-240 g). The rats were subsequently placed in metabolic cages and urine was collected for 24 hours. The quantity of parent compound excreted into urine was determined by HPLC analysis. An ODS column eluted with a gradient from potassium phosphate buffer, pH 5.5 to acetonitrile was employed for these measurements. Detection was at 310-325 nm. […] Parent compounds were typically dissolved in dimethyl sulfoxide, and administered via the tail vein in animals that were briefly anesthetized with halothane.

A value given as a limit tells only on which side of the number the result lay.

As to `Nc1ncnc2c1ncn2[C@@H]1O[C@H](COP(=O)(O)O)[C@@H](O)[C@H]1O` [AMP, reference compound], on human liver FBPase, the IC50 is 1 µM and the “inhibition of hlFBPase (FIG. 2)” value is reported as “dose-dependent inhibition”.

`Nc1ncnc2c1nc(-c1ccc(P(=O)(O)O)o1)n2CCC1CCCCC1` [Compound 2.2, N^9-(2-cyclohexylethyl)-8-(2-(5-phosphono)furanyl)adenine]: the IC50 was greater than 20 µM on mouse liver FBPase, 90 µM in the data set on rat hepatocytes (Hepatocyte) and greater than 20 µM against rat liver FBPase. Besides, the EC50 in data set [1] stood at 35 µM. Moreover, the “displacement of AMP from hlFBPase (FIG. 3)” value in data set [1] is listed as “displaced AMP from hlFBPase in a dose-dependent manner”.

With `Nc1ncnc2c1nc(-c1ccc(P(=O)(O)O)o1)n2Cc1ccc2ccccc2c1` [Compound 2.3, N^9-(2-naphthylmethyl)-8-(2-(5-phosphono)furanyl)adenine], the IC50 against mouse liver FBPase is greater than 20 µM; on human liver FBPase it was 3.3 µM; at rat liver FBPase, greater than 20 µM.

Take `CCn1c(-c2ccc(P(=O)(O)O)o2)nc2c(N)ncnc21` [Compound 2.5, N^9-ethyl-8-(2-(5-phosphono)furanyl)adenine]: on human liver FBPase, the “inhibition of hlFBPase (FIG. 2)” value is “dose-dependent inhibition”.

In turn, `CC(C)Cn1c(-c2ccc(P(=O)(O)O)o2)nc2c(N)ncnc21` [Compound 2.6, N^9-isobutyl-8-(2-(5-phosphono)furanyl)adenine] displayed an IC50 with rat hepatocytes of 18 µM.

Turning to `Nc1ncnc2c1nc(-c1ccc(P(=O)(O)O)o1)n2C1CCCC1` [Compound 2.10, N^9-cyclopentyl-8-(2-(5-phosphono)furanyl)adenine], the IC50 against mouse liver FBPase was greater than 20 µM; in the data set with rat hepatocytes (Hepatocyte), 24 µM; against human liver FBPase it was 2 µM.

Take `CC(C)(CO)Cn1c(-c2ccc(P(=O)(O)O)o2)nc2c(N)ncnc21` [Compound 2.13, N^9-(1-(3-hydroxyl-2,2-dimethyl)propyl)-8-(2-(5-phosphono)-furanyl)adenine]: the IC50 against mouse liver FBPase was greater than 20 µM; in the data set with rat hepatocytes (Hepatocyte), 50 µM; against human liver FBPase it was 4.5 µM. The “inhibition of hlFBPase (FIG. 2)” value against human liver FBPase was “dose-dependent inhibition”.

In the case of `CC(C)(CCl)Cn1c(-c2ccc(P(=O)(O)O)o2)nc2c(N)ncnc21` [Compound 2.14, N^9-(1-(3-chloro-2,2-dimethyl)propyl)-8-(2-(5-phosphono)-furanyl)adenine], the IC50 on mouse liver FBPase was greater than 20 µM; in the data set with rat hepatocytes (Hepatocyte) it was 7.5 µM; against human liver FBPase, 0.9 µM; against rat liver FBPase, greater than 20 µM.

As for `CC1(C)C=CCC(C)(Cn2c(-c3ccc(P(=O)(O)O)o3)nc3c(N)ncnc32)C1` (centres unmarked) [Compound 2.16, N^9-(1,5,5-trimethyl-3-cyclohexenyl)methyl-8-(2-(5-phosphono)furanyl)-adenine], the concentration for half-maximal inhibition (IC50) against mouse liver FBPase was greater than 20 µM; in the data set with rat hepatocytes (Hepatocyte) it was 12 µM; on human liver FBPase it was 1.4 µM; on rat liver FBPase, greater than 20 µM.

Consider `Nc1ncnc2c1nc(NCCP(=O)(O)O)n2[C@@H]1O[C@H](CO)[C@@H](O)[C@H]1O` [Compound 4.1, 8-(2-phosphonoethylamino)-adenosine], for which the IC50 against mouse liver FBPase was greater than 20 µM; against human liver FBPase, 100 µM; on rat liver FBPase, greater than 20 µM.

For the molecule `CC(C)(C)Cn1c(COCP(=O)(O)O)nc2c(N)ncnc21` [Compound 5.5, N^9-neopentyl-8-(phosphonomethoxymethyl)-adenine], the IC50 at mouse liver FBPase is greater than 20 µM; against human liver FBPase, 10 µM; against rat liver FBPase, greater than 20 µM.

With `Nc1ncnc2c1nc(SCP(=O)(O)O)n2CCC1CCCCC1` [Compound 8.1, N^9-(2-cyclohexylethyl)-8-(phosphonomethylthio)adenine], the IC50 at mouse liver FBPase is greater than 20 µM; at human liver FBPase it was 23 µM; at rat liver FBPase it was greater than 20 µM.

In the case of `CN(C)c1ncnc2c1nc(-c1ccc(P(=O)(O)O)o1)n2CCc1ccccc1` [Compound 10.1, 6-Dimethylamino-N^9-phenethyl-8-(2-(5-phosphono)furanyl)purine], the IC50 against mouse liver FBPase is greater than 20 µM; on human liver FBPase, 50 µM; against rat liver FBPase, greater than 20 µM.

Regarding `CSc1nc(N)c2nc(-c3ccc(P(=O)(O)O)o3)n(CC(C)C)c2n1` [Compound 11.1, 6-amino-N^9-isobutyl-2-methylthio-8-(2-(5-phosphono)-furanyl)purine], the IC50 against mouse liver FBPase is greater than 20 µM; against human liver FBPase, 0.7 µM.

Take `CC(C)(C)Cn1c(-c2oc(P(=O)(O)O)c(Cl)c2Cl)nc2c(N)ncnc21` [Compound 12.1, 6-amino-N^9-neopentyl-8-(2-(3,4-dichloro-5-phosphono)furanyl)purine]: the results for the IC50 against mouse liver FBPase and on human liver FBPase were greater than 100 µM and 13 µM, respectively.

As to `CC(C)(C)Cn1c(-c2ccc(P(=O)(OCOC(=O)C(C)(C)C)OCOC(=O)C(C)(C)C)o2)nc2c(N)ncnc21` [Compound 16.5, 6-Amino-9-neopentyl-8-(2-(5-dipivaloxymethylphosphono)furanyl)purine], the oral bioavailability in data set [2] is given as 5.3%.

`NC(=O)c1ncn([C@@H]2O[C@H](COP(=O)(O)O)[C@@H](O)[C@H]2O)c1N` [ZMP, aminoimidazolecarboxamideriboside monophosphate, reference compound]: the IC50 against human liver FBPase was determined as 12 µM. For the same molecule, in data set [1], the EC50 is 250 µM and the “displacement of AMP from hlFBPase (FIG. 3)” value was “displaced AMP from hlFBPase in a dose-dependent manner”.
